The subject of data set [1] is HeLa cells that stably expressed GalNAcT2-GFP (Golgi). Kind of data set: Two-step Golgi labeling and colocalization with GalNAcT2-GFP by confocal microscopy. In kind it is cell-based. Particulars: 2 μM Cer-TCO then 2 μM SiR-Tz, or SiR-Tz only; Golgi area; confocal. The method, then: To evaluate whether the Golgi could be selectively imaged using Cer-SiR, HeLa cells that stably expressed a protein fusion composed of GFP and N-acetyl-galactosaminyltransferase 2 (GalNAcT2), a transmembrane protein that localizes to the Golgi with high specificity (Storrie, et al., 1998, J. Cell Biol. 143:1505-1521), were used. These cells were treated with 2 μM Cer-TCO (5 min), maintained at 19.5° C. for 60 min to localize the lipid to the Golgi, treated subsequently with 2 μM SiR-Tz (30 min), and visualized using confocal microscopy (FIG. 2A).
The GalNAcT2-GFP and Cer-SiR signals colocalized with a Pearson's coefficient of 0.50±0.02; the corresponding value for the signals from GalNAcT2-GFP and SiR-Tz was 0.08±0.01 (p<0.0001) (FIG. 10), supporting that Cer-TCO effectively localized to the Golgi and reacted efficiently with SiR-Tz.
Stably or transiently transfected HeLa cells were cultured on 35 mm glass bottom dishes (Mattek). To label with Cer-TCO/SiR-Tz, the cells were incubated in PBS containing 1% casein, 0.2% Pluronic F-127 and 2 or 5 μM TCO-Cer for 5 min at 37° C. After washing three times with DMEM ph(−), the cells were incubated for 1 h at 19.5° C. in DMEM ph(−). During this incubation the dish was sealed with parafilm to protect the cells from the used water bath. Subsequently, the cells were washed three times and PBS containing 1% casein and 2 or 1 μM SiR-Tz, respectively, was added to the dish. The dish was sealed with parafilm again and incubated for 30 min at 19.5° C. After washing three times with DMEM ph(−), the cells were observed under a confocal microscope. Fixed samples were prepared similarly with an additional treatment with 4% PFA for 10 min at room temperature after first temperature block. […]
The Pearson correlation between the SiR and the GFP signal within cells was determined using the correlation measurement tool in Volocity. […] For cells stably expressing GalNAcT2-GFP and treated with SiR-Tz and Cer-TCO 13 samples (cells) were analyzed and for cells only treated with SiR-Tz 8 samples were analyzed. […]

Data set [2] deals with HeLa cells. Nature of the data set: Cell viability / cell- and photo-toxicity under prolonged imaging. In kind it is cell-based. Particulars: at concentrations as high as 2 μM. How it is done: In the experiments described above, the cells were exposed to Cer-TCO/SiR-Tz for minutes, a relatively short time period. To evaluate whether this Golgi labeling strategy would result in cell- or photo-toxicity over prolonged periods (such as hours), HeLa cells were treated with varying concentrations of either Cer-TCO/SiR-Tz or BODIPY® FL C5-ceramide (BODIPY-Cer) (Marks, et al., 2008, Cell Biol. 130:819-832; Pagano, et al., 1991, J. Cell Biol. 113:1267-1279), a commercially available fluorescent dye that labels the Golgi. […]
Hela cells stably expressing GalNAcT2-GFP were cultured on 35 mm glass bottom dishes subsequently labeled with various concentrations of TCO-Cer (0, 1, 2, and 5 μM) and SiR-Tz (0, 1, and 2 μM) following the protocol described elsewhere herein. […] After equilibration for 30 min, phase contrast images were taken at an interval of 20 min and fluorescence images at an interval of 10 min over 400-750 min. […] The number of physically intact cells was counted at each time point. For each condition at least 110 cells were counted/observed in the initial images (n0 (0 μM TCO-Cer, 0 μM SiR-Tz)=123 cells, n0 (2 μM TCO-Cer, 2 μM SiR-Tz)=113 cells, n0 (1 μM TCO-Cer, 1 μM SiR-Tz)=130 cells, n0 (5 μM TCO-Cer, 1 μM SiR-Tz)=120 cells, n0 (5 μM BODIPY-Cer)=123 cells).

Molecules are shown by their SMILES.

Regarding `CCCCCCCCCCCCC/C=C/[C@@H](O)[C@H](CO)NC(=O)CCCCCNC(=O)OC1CCCC2=C(c3ccc(CNC(=O)c4ccc(C(=O)[O-])c(C5=C6C=CC(=[N+](C)C)C=C6[Si](C)(C)c6cc(N(C)C)ccc65)c4)cc3)NN=CC2CC1` (stereo partly drawn) [Cer-SiR, 4-((4-(7-(((6-(((2S,3R,E)-1,3-dihydroxyoctadec-4-en-2-yl)amino)-6-oxohexyl)carbamoyl)oxy)-2,4a,5,6,7,8,9,10-octahydrocycloocta[d]pyridazin-1-yl)benzyl)carbamoyl)-2-(7-(dimethylamino)-3-(dimethyliminio)-5,5-dimethyl-3,5-dihydrodibenzo[b,e]silin-10-yl)benzoate], in data set [1], the “Pearson's coefficient of colocalization with GalNAcT2-GFP signal” value is given as 0.50±0.02. For the same molecule, the Toxicity entry in data set [2] is “non-toxic”.

The values above are taken from US10087199B2, “Super-resolution imaging compositions and methods using same” (Yale University, priority 2014, dated 2018).
